Source: patent publication US9616101B2, “Differentiation marker and differentiation control of eye cell” (Kyoto Prefectural Public University Corporation, priority 2012, dated 2017)
“Also recorded” adds a separate entry of the source.

Tests used:
Type in all cases: cell-based
GPR49/LGR5 expression [1] = assay: GPR49/LGR5 expression in human corneal tissue treated with Hedgehog signal modulators; conditions: 100 ng/ml rhShh, 10 μM purmorphamine, 10 μM cyclopamine, 3 days
Description: (§1) A corneal tissue was embedded with OCT compound (catalog No.: 4583; Sakura Finetek, Tokyo, Japan), and frozen in liquid nitrogen to prepare a frozen corneal tissue section. The frozen block was sliced to 8 μm, applied on a silane-coating slide, and air-dried. For preparing the whole tissue section, a Descemet's membrane containing a corneal endothelial cell was peeled from a corneal tissue, allowed to stand in ice-cooled 100% acetone for 30 seconds, applied on a silane-coating slide, and air-dried. As a cultured corneal endothelial cell, a cell cultured on a LabTek 8-well plastic chamber slide was used. Ice-cooled 100% acetone was added to a corneal tissue and the cultured cell, the resultant was allowed to stand at 4° C. for 15 minutes to fix the cell. After shaking and washing with 0.15% TritonX/PBS-, 1% bovine serum albumin (catalog No.: A4503BSA; Sigma-Aldrich, St. Louis, Mo.) was added, and allowed to stand at room temperature for 30 minutes to perform blocking. A primary antibody was diluted with 1% BSA, and incubated at room temperature for 1 hour. As a primary antibody to be used, anti-rabbit GPR49/LGR5 (catalog No.: GTX71143; 1: 200; GeneTex Inc., San Antonio, Tex.), anti-rabbit Nestin (catalog No.: PRB-570C; 1: 200; COVANCE, Berkeley, Calif.), anti-mouse ABCG2 (catalog No.: NC_236; 1: 2; Kamiya biomedical CO., Seattle, Wash. USA), anti-mouse Ki-67 (catalog No.: 556003; 1: 200 BD Pharmingen™ NJ, USA), anti-rabbit Na^+/K^+ ATPase (catalog No.: A132; 1: 100; Zymed), and anti-rabbit ZO1 (Zymed Laboratries Inc., South San Francisco, Calif.) were used. The resultant was washed with 0.15% Triton/PBS- twice, and PBS- once.
For extracting RNA from a corneal tissue and a cultured cell, RNeasy Mini Kit (catalog No.: 74106; QIAGEN, Valencia, Calif.) was used. Added was 1 μl of OligodT Primer (catalog No.: 18418-020; Invitrogen) per 1 μg of the extracted RNA, and the resultant was incubated at 70° C. for 2 minutes, and immediately ice-cooled. […] The resulting data were analyzed by ABI PRISM (registered trademark) 7000 Sequence Detection System. […]

[2] = test system: cultured human corneal endothelial cell; assay: Ki-67 immunostaining and cell morphology of cultured human corneal endothelial cell treated with Hedgehog signal modulators; conditions: primary human corneal endothelial cell, 2 μM cyclopamine, 3 days; for Ki-67 expression (cell proliferation) as compared with a control: 100 ng/ml rhShh, 2 μM purmorphamine
Experimental: (§2) After 3 days, immunostain of GPR49/LGR5 and Ki-67 was performed. In addition, RNA of a corneal endothelial cell incubated under the same conditions was extracted, and the amount of expression of mRNA was measured by real time PCR.

GPR49/LGR5 expression [3] = assay: GPR49/LGR5 expression in cultured human corneal endothelial cell treated with Hedgehog signal modulators; conditions: primary human corneal endothelial cell; 100 ng/ml rhShh, 2 μM purmorphamine, 2 μM cyclopamine; 3 days
Experimental: as §2

[4] = test system: human corneal endothelial cell; assay: Ki67 immunostaining of human corneal endothelial cells incubated with RSPO1 to 4
Description: as §1
A secondary antibody was diluted with a mixed solution of 1% BSA and 0.15% TrironX/PBS-, and incubated at room temperature for 30 minutes. As a secondary antibody to be used, Alexa™ Fluor 488-labeled (conjugated) goat anti-rabbit IgG (catalog No.: A11034; 1: 1500; Molecular Probe-Invitrogen) and Alexa™ Fluor 488-labeled (conjugated) goat anti-mouse IgG (catalog No.: A11029; 1: 1500; Molecular Probe-Invitrogen) were used. The secondary antibody was shaken and washed with 0.15% Triton/PBS- twice, and PBS- once, subjected to nuclear staining with propidium iodide (catalog No.: SP29004-41; PI; Nacalai Tesque, Inc. Kyoto, Japan), and embedded while covered with a cover glass.
In order to investigate a relationship between R-sporadin 1 (RSPO1), R-spondin 2 (RSPO2), R-spondin 3 (RSPO3), or R-spondin 4 (RSPO4) and differentiation of a corneal endothelial cell, the relationship was studied using RSPO1. Reagents used are as follows. • RSPO1 R&D systems catalog No.: 4645-RS • RSPO2 R&D systems catalog No.: 3266-RS • RSPO3 R&D systems catalog No.: 3500-RS • RSPO4 R&D systems catalog No.: 4575-RS
Then, for the purpose of investigating the influence of RSPO on cell proliferation, RSPO1 to 4 were incubated into a human corneal endothelial cell under conditions of 37° C. and 5% CO2 for 1 day. Thereafter, Ki-67 being a cell proliferation marker was immunostained.

Row | Molecule | expression of GPR49/LGR5 as compared with a control (immunostaining; same result at the mRNA expression level) (GPR49/LGR5 expression [1]) | Ki-67 expression (cell proliferation) as compared with a control [2] | also measured
1 | CC1=C2C[C@H]3[C@@H](CC=C4C[C@@H](O)CC[C@@]43C)[C@@H]2CC[C@]12O[C@@H]1C[C@H](C)CN[C@H]1[C@H]2C [cyclopamine] | clear expression suppression | suppression of cell proliferation; also recorded: not upregulated | cell morphology [2]: abnormality of cell morphology; also recorded: could not maintain a normal hexagonal form
2 | c1ccc2c(Oc3nc(Nc4ccc(N5CCOCC5)cc4)c4ncn(C5CCCCC5)c4n3)cccc2c1 [purmorphamine, N-(4-morpholinophenyl)-2-(1-naphthyloxy)-9-cyclohexyl-9H-purine-6-amine] | remarkable increase (upregulation) | elevated; also recorded: upregulated | 
3 | rhShh: recombinant human Sonic hedgehog, ligand of the Hedgehog pathway binding to Ptch1 | remarkable increase (upregulation) | elevated | Ki-67 expression (cell proliferation) as compared with a control ([2]; listed as SHH): upregulated; cell expressing GPR49/LGR5 (GPR49/LGR5 expression [3]): confirmed
4 | RSPO2: human recombinant R-spondin 2, R&D systems catalog No. 3266-RS (protein, listed as Homo sapiens) MQFRLFSFALIILNCMDYSHCQGNRWRRSKRASYVSNPICKGCLSCSKDNGCSRCQQKLFFFLRREGMRQYGECLHSCPSGYYGHRAPDMNRCARCRIENCDSCFSKDFCTKCKVGFYLHRGRCFDECPDGFAPLEETMECVEGCEVGHWSEWGTCSRNNRTCGFKWGLETRTRQIVKKPVKDTILCPTIAESRRCKMTMRHCPGGKRTPKAKEKRNKKKKRKLIERAQEQHSVFLATDRANQ |  |  | Ki67-positive cell rate as compared with a control ([4]; RSPO2 50 ng/ml, 100 ng/ml (FIG. 12)): slightly increased
5 | RSPO3: human recombinant R-spondin 3, R&D systems catalog No. 3500-RS (protein, listed as Homo sapiens) MHLRLISWLFIILNFMEYIGSQNASRGRRQRRMHPNVSQGCQGGCATCSDYNGCLSCKPRLFFALERIGMKQIGVCLSSCPSGYYGTRYPDINKCTKCKADCDTCFNKNFCTKCKSGFYLHLGKCLDNCPEGLEANNHTMECVSIVHCEVSEWNPWSPCTKKGKTCGFKRGTETRVREIIQHPSAKGNLCPPTNETRKCTVQRKKCQKGERGKKGRERKRKKPNKGESKEAIPDSKSLESSKEIPEQRENKQQQKKRKVQDKQKSVSVSTVH |  |  | Ki67-positive cell rate as compared with a control ([4]; RSPO3 50 ng/ml, 200 ng/ml (FIG. 13)): slightly increased
6 | RSPO4: human recombinant R-spondin 4, R&D systems catalog No. 4575-RS (protein, UniProt Q2I0M5 20-234, looked up) R-spondin-4: LNRRKKQVGTGLGGNCTGCIICSEENGCSTCQQRLFLFIRREGIRQYGKCLHDCPPGYFGIRGQEVNRCKKCGATCESCFSQDFCIRCKRQFYLYKGKCLPTCPPGTLAHQNTRECQGECELGPWGGWSPCTHNGKTCGSAWGLESRVREAGRAGHEEAATCQVLSESRKCPIQRPCPGERSPGQKKGRKDRRPRKDRKLDRRLDVRPRQPGLQP |  |  | Ki67-positive cell rate as compared with a control ([4]; RSPO4 50 ng/ml, 500 ng/ml (FIG. 14)): slightly increased
